The values that follow come from patent US20070155771A1, “Methods and means for treating protein conformational disorders” (priority 2003, published 2007).

This assay deals with mTOR-dependent TOP-translation. Kind of assay: TOP-luciferase reporter assay in PC12 cells stably expressing Q23 or Q74. Type of assay: cell-based, rat. As for the experimental part: PC12 cells stably expressing Q23 or Q74 were transfected with a luciferase construct having a 5′ untranslated region from the eEF2 gene containing a terminal oligopyrimidine tract (TOP-luciferase) or without the TOP sequence (Control-luciferase) along with β-galactosidase (to control transfection efficiency). Transfected cells were maintained in serum free medium with doxycycline for 36 hours following which the cells were stimulated with 15% serum with or without rapamycin for 3 h. Cells were then lysed and luciferase assays were performed according to standard protocol. COS-7 cells were co-transfected with Q23 or Q74 with control- or TOP-luciferase along with β-gal and experiments were performed as above. […] Experiments were performed in sextuplicate and repeated several times.
Phosphorylation of the ribosomal protein S6 by S6K1 positively regulates the translation initiation of mRNAs containing 5′-terminal oligopyrimidine tracts (5′-TOP), like mRNAs coding for ribosomal proteins and translation elongation factors. A previously validated luciferase reporter assay was used to measure mTOR-dependent TOP-translation (Kim, J. E. & Chen, J. Proc Natl Acad Sci USA 97, 14340-14345 (2000), Schwab, M. S. et al. Mol Cell Biol 19, 2485-2494 (1999)). Rapamycin is a specific inhibitor of mTOR. Comparison of cells for TOP-dependent translation with this assay in the presence or absence of rapamycin allows assessment of the amount of functional cellular mTOR that can be inhibited by rapamycin. In FIG. 10C, each bar represents the difference between the luciferase activities (corrected for transfection efficiency-see methods) in the presence vs. the absence of rapamycin, for a luciferase reporter with a TOP sequence (+TOP) (FIG. 10A) and otherwise identical control construct without the TOP sequence (−TOP) (FIG. 10B).

As for rapamycin, the “inhibition of TOP-dependent (+TOP) expression of luciferase” value is given as “about 18%” (Q23-expressing PC12 cells, after serum stimulation, 3 h) and “no such inhibitory effect” (Q74-expressing PC12 cells). In addition, the “luciferase activity, control-luciferase construct without the TOP sequence (−TOP)” value (Q23 cells) is given as “no inhibitory effect”.
